{
  "source": "patent US20230008508A1",
  "about": "“COMBINATION THERAPIES FOR THE TREATMENT OF CANCER” (H. LEE MOFFITT CANCER CENTER AND RESEARCH INSTITUTE, INC., priority 2019, published 2023)",
  "key": {"[1]": {"tested_on": "spontaneous UV-driven cutaneous squamous cell carcinoma (cuSCC)", "test": "Tumor regression in spontaneous UV-driven cuSCC model", "type": "in vivo", "settings": "FIG. 3", "from_the_text": "(§1) Here, is shown that deletion of the AN isoforms of p63 or p73 leads to metabolic reprogramming and regression of p53 deficient tumors (FIG. 1). […] When investigated further it was shown that pramlintide suppresses 4Np63 expression (FIG. 4). […] These findings were validated across the sensitive cell lines Colo16 and RDEB2 and the resistant cell lines SCCIC1 and SRB12 for pramlintide (symlin) administration and regulation by ΔNp63 showing reduced levels for CYR61 and CTGF in the sensitive lines and no effect or increases in resistant lines (FIG. 6). A similar observation was also made with the F-box protein FBXO16. […] Looking at additional cell types, ΔNp63 was expressed in sensitive cells but not resistant cells (FIG. 9). To see if the regulation pattern for CYR61, CTGF, and FBXO16 was maintained in HNSCC cell lines, the expression level for each was measured in SQ20B and FaDu cells with and without the application of pramlintide (symlin) (FIG. 10). As for the Sensitive cuSCC lines, the sensitive HNSCC lines upregulate FBXO16 and downregulate CYR61 and CTGF in response to both pramlintide showing that pramlintide mediated degradation of ΔNp63 affects target gene expression. Thus, target genes cay be used as a biomarker of responsiveness to pramlintide. We next investigated the effect of pramlintide (symlin) on ΔNp63 expression levels in SQ20B (FIG. 11) and FaDu (FIG. 12) cell lines."}, "RDEB2": {"tested_on": "RDEB2", "test": "Sensitivity of cuSCC cell line to pramlintide (inhibition curve)", "type": "cell-based"}, "CTGF": {"tested_on": "CTGF", "test": "Expression of ΔNp63 target gene CTGF", "type": "cell-based", "from_the_text": "(§2) Sensitive lines downregulate CYR61 and CTGF in response to both pramlintide and direct siRNA-mediated knockdown of ΔNp63 showing that pramlintide mediated degradation of ΔNp63 affects target gene expression. Resistant lines upregulate CYR61 and CTGF in response to both pramlintide and direct siRNA-mediate knockdown of ΔNp63.\nas §1"}, "HCC95 cells": {"tested_on": "HCC95 cells", "test": "Cell proliferation and survival (cell cycle arrest, annexin V apoptosis)", "type": "cell-based", "settings": "FIG. 16", "experimental": "(§3) Cell cycle arrest and apoptosis are increased by pramlintide and HDACi in HCC95 lung SCC and H1975 lung adenocarcinoma cell lines.\n(§4) In fact, it was observed that both pramlintide and HDACi treatment reduces ΔNp63 in H1975 lung adenocarcinoma (LUAD) cells (FIG. 15). […] To investigate what effects panobinostat has on the glycolytic rate of HCC95 and H1975 cells, glycolysis was measured by ECAR showing in both […] glycolysis was decreased with treatment (FIG. 17)."}, "H1975 cells": {"tested_on": "H1975 cells", "test": "Cell proliferation and survival (cell cycle arrest, annexin V apoptosis)", "type": "cell-based", "settings": "FIG. 16", "experimental": "as §3, §4"}, "FBXO16": {"tested_on": "FBXO16", "test": "Expression of ΔNp63 target gene FBXO16", "type": "cell-based", "from_the_text": "Sensitive lines upregulate FBXO16 in response to both pramlintide and direct siRNA-mediate knockdown of ΔNp63 showing that pramlintide mediated degradation of ΔNp63 affects target gene expression. Thus target genes may be used as a biomarker of responsiveness to pramlintide. Resistant lines downregulate FBXO16 in response to both pramlintide and direct siRNA-mediate knockdown of ΔNp63 showing that pramlintide mediated degradation of ΔNp63 affects target gene expression.\nas §1"}, "Colo16": {"tested_on": "Colo16", "test": "Sensitivity of cuSCC cell line to pramlintide (inhibition curve)", "type": "cell-based", "from_the_text": "(§5) Glycolysis, as measured by Extracellular Acidification Rate (Seahorse), is diminished by pramlintide administration (10 micromolar) in the sensitive SQ20B and FaDu Head and Neck SCC lines. […]\nas §1"}, "SRB12": {"tested_on": "SRB12", "test": "Sensitivity of cuSCC cell line to pramlintide (inhibition curve)", "type": "cell-based", "from_the_text": "as §5, §1"}, "SCCIC1": {"tested_on": "SCCIC1", "test": "Sensitivity of cuSCC cell line to pramlintide (inhibition curve)", "type": "cell-based", "from_the_text": "as §5, §1"}, "ΔNp63": {"tested_on": "ΔNp63", "test": "ΔNp63 expression / protein levels (western blots)", "type": "cell-based", "settings": "for ΔNp63 protein expression: western blot", "from_the_text": "as §1, §4"}, "[2]": {"tested_on": "FaDu Head and Neck SCC line", "test": "Glycolysis measured by Extracellular Acidification Rate (Seahorse)", "type": "cell-based", "settings": "10 micromolar; sensitive FaDu HNSCC line; FIG. 2D", "from_the_text": "as §5"}, "[3]": {"tested_on": "SQ20B Head and Neck SCC line", "test": "Glycolysis measured by Extracellular Acidification Rate (Seahorse)", "type": "cell-based", "settings": "10 micromolar; sensitive SQ20B HNSCC line; FIG. 2D", "from_the_text": "as §5"}, "[4]": {"tested_on": "cutaneous squamous cell carcinoma (cuSCC) cell lines", "test": "Glycolysis of cuSCC cell lines", "type": "cell-based"}, "HCC95 lung SCC cells": {"tested_on": "HCC95 lung SCC cells", "test": "Glycolytic rate measured by ECAR", "type": "cell-based", "settings": "FIG. 17", "experimental": "(§6) Glycolysis as measured by ECAR in HCC95 lung SCC and H1975 lung adenocarcinoma cells are decreased by pramlintide.\nas §4"}, "[5]": {"tested_on": "H1975 lung adenocarcinoma cells", "test": "Glycolytic rate measured by ECAR", "type": "cell-based", "settings": "FIG. 17", "experimental": "as §6, §4"}, "CYR61": {"tested_on": "CYR61", "test": "Expression of ΔNp63 target gene CYR61", "type": "cell-based", "from_the_text": "as §2, §1"}, "tumors": {"tested_on": "tumors", "settings": "in-vivo; prior published studies; FIG. 20; cited from earlier work"}, "[6]": {"tested_on": "p53 deficient thymic lymphomas", "test": "Tumor regression in p53 deficient tumors", "type": "in vivo", "from_the_text": "as §1"}, "[7]": {"tested_on": "p53 deficient lung cancers", "test": "Tumor regression in p53 deficient tumors", "type": "in vivo", "from_the_text": "as §1"}, "SRB12 cells": {"tested_on": "SRB12 cells", "test": "Radiation treatment with and without pramlintide", "type": "cell-based", "settings": "pramlintide at the IC40, FIG. 21", "experimental": "During the experiments it was observed that Pramlintide induces ROS in in-vivo in tumors (FIG. 20). To investigate whether because of its effect on ROS pramlintide would have a synergistic effect on radiation sensitivity, SRB12 cells were treated with radiation with and without the presence of pramlintide. […] Accordingly, in one aspect, disclosed herein are methods of increasing the sensitivity of a cancer (such as for example, cutaneous squamous cell carcinoma (cuSCC) or lung cancer or any cancer comprising a p53, p63, or p73 mutation or aberrant expression thereof) in a subject to radiation therapy comprising administering to the subject an agent that inhibits ΔNp63 and/or ΔNp73. In one aspect the agent that inhibits ΔNp63 and/or ΔNp73 comprises an inhibitor of glycolysis (such as, for example, an amylin analog including but not limited to pramlintide)."}, "[8]": {"settings": "resistant cuSCC lines (SCCIC1, SRB12), FIG. 6"}, "[9]": {"settings": "sensitive HNSCC lines (SQ20B, FaDu), FIG. 10"}, "[10]": {"settings": "sensitive cuSCC lines (Colo16, RDEB2), FIG. 6"}},
  "data": [
    {"compound": "CC[C@H](C)[C@H](NC(=O)[C@@H]1CCCN1C(=O)CNC(=O)[C@H](Cc1ccccc1)NC(=O)[C@H](CC(N)=O)NC(=O)[C@H](CC(N)=O)NC(=O)[C@H](CO)NC(=O)[C@H](CO)NC(=O)[C@H](Cc1c[nH]cn1)NC(=O)[C@@H](NC(=O)[C@H](CC(C)C)NC(=O)[C@H](Cc1ccccc1)NC(=O)[C@H](CC(N)=O)NC(=O)[C@H](C)NC(=O)[C@H](CC(C)C)NC(=O)[C@H](CCCNC(=N)N)NC(=O)[C@H](CCC(N)=O)NC(=O)[C@@H](NC(=O)[C@H](C)NC(=O)[C@@H]1CSSC[C@H](NC(=O)[C@@H](N)CCCCN)C(=O)N[C@@H](CC(N)=O)C(=O)N[C@@H]([C@@H](C)O)C(=O)N[C@@H](C)C(=O)N[C@@H]([C@@H](C)O)C(=O)N1)[C@@H](C)O)C(C)C)C(=O)N[C@@H](CC(C)C)C(=O)N1CCC[C@H]1C(=O)N1CCC[C@H]1C(=O)N[C@H](C(=O)N[C@@H](CC(N)=O)C(=O)N[C@H](C(=O)NCC(=O)N[C@@H](CO)C(=O)N[C@@H](CC(N)=O)C(=O)N[C@H](C(=O)N[C@@H](Cc1ccc(O)cc1)C(N)=O)[C@@H](C)O)C(C)C)[C@@H](C)O", "note": "[pramlintide]", "values": [
      {"measurement": "Tumor regression", "setting": "[1]", "value": "induces tumor regression"},
      {"measurement": "Sensitivity to pramlintide", "setting": "RDEB2", "value": "sensitive"},
      {"measurement": "CTGF expression", "setting": "CTGF; [8]", "value": "upregulate"},
      {"measurement": "CTGF expression", "setting": "CTGF; [9]", "value": "downregulate"},
      {"measurement": "CTGF expression", "setting": "CTGF; [10]", "value": "downregulate"},
      {"measurement": "Apoptosis (annexin V staining)", "setting": "HCC95 cells; HCC95", "value": "increased apoptosis"},
      {"measurement": "Proliferation", "setting": "HCC95 cells; HCC95 cells", "value": "reduced proliferation"},
      {"measurement": "Cell cycle arrest", "setting": "HCC95 cells; HCC95 lung SCC", "value": "increased"},
      {"measurement": "Apoptosis (annexin V staining)", "setting": "H1975 cells; H1975", "value": "increased apoptosis"},
      {"measurement": "Proliferation", "setting": "H1975 cells; H1975 cells", "value": "reduced proliferation"},
      {"measurement": "Cell cycle arrest", "setting": "H1975 cells; H1975 lung adenocarcinoma", "value": "increased"},
      {"measurement": "FBXO16 expression", "setting": "FBXO16; resistant cuSCC lines, FIG. 8", "value": "downregulate"},
      {"measurement": "FBXO16 expression", "setting": "FBXO16; [9]", "value": "upregulate"},
      {"measurement": "FBXO16 expression", "setting": "FBXO16; sensitive cuSCC lines, FIG. 8", "value": "upregulate"},
      {"measurement": "Sensitivity to pramlintide", "setting": "Colo16", "value": "sensitive"},
      {"measurement": "Sensitivity to pramlintide", "setting": "SRB12", "value": "resistant"},
      {"measurement": "Sensitivity to pramlintide", "setting": "SCCIC1", "value": "resistant"},
      {"measurement": "ΔNp63 expression", "setting": "ΔNp63; FIG. 4, cell line not stated", "value": "suppresses ΔNp63 expression"},
      {"measurement": "Dependence of ΔNp63 suppression on Fbxw7 expression", "setting": "ΔNp63; FIG. 13", "value": "needs to be present"},
      {"measurement": "ΔNp63 protein expression", "setting": "ΔNp63; FaDu, FIG. 12", "value": "decreased protein expression"},
      {"measurement": "ΔNp63 protein levels", "setting": "ΔNp63; H1975 LUAD cells, FIG. 15", "value": "reduce ΔNp63"},
      {"measurement": "ΔNp63 protein levels", "setting": "ΔNp63; LUSC HCC95 cells, FIG. 14", "value": "reduces ΔNp63 protein levels"},
      {"measurement": "ΔNp63 protein expression", "setting": "ΔNp63; SQ20B, FIG. 11", "value": "decreased protein expression"},
      {"measurement": "Glycolysis (Extracellular Acidification Rate)", "setting": "[2]", "value": "diminished"},
      {"measurement": "Glycolysis (Extracellular Acidification Rate)", "setting": "[3]", "value": "diminished"},
      {"measurement": "Glycolysis", "setting": "[4]; resistant cuSCC lines, FIG. 2A, 2C", "value": "do not exhibit this decrease in glycolysis"},
      {"measurement": "Glycolysis", "setting": "[4]; sensitive cells, FIGS. 2A-2D", "value": "suppresses glycolysis"},
      {"measurement": "Glycolysis (ECAR)", "setting": "HCC95 lung SCC cells", "value": "decreased"},
      {"measurement": "Glycolysis (ECAR)", "setting": "[5]", "value": "decreased"},
      {"measurement": "CYR61 expression", "setting": "CYR61; [8]", "value": "upregulate"},
      {"measurement": "CYR61 expression", "setting": "CYR61; [9]", "value": "downregulate"},
      {"measurement": "CYR61 expression", "setting": "CYR61; [10]", "value": "downregulate"},
      {"measurement": "ROS in tumors", "setting": "tumors", "value": "induces ROS"},
      {"measurement": "Tumor regression", "setting": "[6]", "value": "rapid tumor regression"},
      {"measurement": "Tumor regression", "setting": "[7]", "value": "rapid tumor regression"},
      {"measurement": "Sensitivity to radiation treatment", "setting": "SRB12 cells", "value": "more sensitive to radiation treatment"}
    ]}
  ]
}
